Results as given in patent US20120136033A1, “Small Molecule Antagonists of Phosphatidylinositol-3,4,5-Triphosphate (PIP3) and Uses Thereof” (President and Fellows of Harvard College, priority 2009, published 2012).

What was measured:
cells [1] = assay: cell death under glucose/glutamine deprivation; assay type: cell-based
Text: Elstrom R L et al. (2004) Cancer Res 64:3892-9.

HUVEC = HUVEC migration, wound healing and transwell assays; assay type: cell-based, human
Method: Two models of cell migration were used, a transwell migration model and a wound closure model. Migration of cancer and endothelial cells was evaluated using 24-transwell Boyden chamber (Costar, Bedford, Mass.) with a polystyrene membrane (6.5 mm diameter, 10 μm thickness, and 8 μm pore size). Cells were suspended in serum-free media and seeded in the upper compartment of each well (2×10^4 cells/well) in the presence or absence of different compounds at the indicated concentrations. The lower compartment contained 600 μl of serum-free culture media supplemented with growth factors. After an 8-hr incubation at 37° C., cells were fixed and stained with 0.1% crystal violet. Non-migrating cells on the upper surface of the filter were removed, and the stained cells that migrated to the lower side were photographed using a phase-contrast microscope (Nikon, Japan) in five random fields. The cells were lysed with 10% acetic acid, and colorimetric determination was made at 595 nm using Wallac Victor 3 plate reader.
Cancer or endothelial cells were seeded into fibronectin-coated 96-well plates (2×10^4 cells/well). […]
Second, HUVEC were serum starved and treated with PITs (25, 50 100 μM) or PIT-1is (100 μM) for 8 hr, followed by bFGF (10 ng/ml) stimulation for 15 min. […] The number of cell ruffles/lamellipodia was counted in five random fields.

[2] = system: multiple cancer cell lines; assay: cancer cell viability (MTS or ATP assay), multiple cancer cell lines; assay type: cell-based; settings: for viability of multiple cancer cell lines: B16, Jurkat, Lewis lung carcinoma, A549, 4T1, SUM-159, MDA-MB-231, MTS or ATP assay
Method: Different cancer cell lines U87MG, SUM 159, A549, and MDA-MB-231 were incubated with the indicated concentrations of PIT-1 (12.5-100 μM) for 48 hr. Cell viability was determined using ATP assay.
Based on the critical role of PIP3-dependent Akt signaling in the regulation of cell survival, the effect of PIT-1 on the cancer cell viability was tested. Cancer cells were seeded into 96-well plates (white plates for ATP assay; black plates for fluorescent assay; clear plates for MTS assay) at the density of 5-10×10^3 cells per well in 100 μl of the appropriate media. Compounds were added at a series of concentrations and incubated for different times. For the ATP assay, a luminescence-based commercial kit (CellTiter-Glo, Promega, Madison, Wis.) was used. Thirty microliters of cell lysis/ATP detection reagent was added to each well, mixed for 10 min at room temperature, and the luminescence was measured using a Wallac Victor 3 plate reader (Perkin-Elmer, Wellesley, Mass.). For the MTS assay, a CellTiter 96 AQueous Non-Radioactive Cell Proliferation Assay Kit (Promega, Madison, Wis., USA) was used. Twenty microliters of the combined MTS/PMS solution was added into each well, incubated for 4 hr at 37° C., and the absorbance at 490 nm was measured using a Wallac Victor 3 plate reader. For the Sytox cell death assay, measuring loss of plasma membrane integrity, cells were incubated with 1 μM Sytox Green reagent (Molecular Probes, Eugene, Oreg.) for 30 min at 37° C. and the fluorescence intensity was measured using Wallac Victor 3 plate reader with excitation at 485 nm and emission at 545 nm. Next, 5 μl of 20% (v/v) Triton X-100 solution was added to each well and incubated for 1 hr at 37° C., and the signal was measured again. The ratio of values (percentage of dead cells in each well) before and after Triton X-100 treatment was calculated and normalized to the relevant controls not subjected to the cytotoxic stimuli. IC50 values were determined using Origin6 software (MicroCal, LLC, Northampton, Mass.).

SUM159 cells = assay: actin polymerization and ruffling/lamellipodia formation in SUM159 cells; assay type: cell-based, human; settings: 25, 50, 100 μM PITs or 100 μM PIT-1is, 8 hr; PDGF 15 min
Method: In one set of experiments, the ability of PITs to inhibit actin polymerization and ruffling/lamellipodia formation was examined in SUM159 cells. Cells were serum starved and treated with PITs (25, 50 100 μM) or PIT-1is (100 μM) for 8 hr, followed by PDGF (100 ng/ml) stimulation for 15 min. Cells were fixed and stained with TRITC-phalloidin to visualize actin fibers, followed by fluorescent microscopy analysis. The number of cells with ruffles/lamellipodia was counted in five random fields.

[3] = target: T1, Akt PH domain (PH123, 1-123 a.a. N-terminal fragment of human Akt1) (Homo sapiens, UniProt P31749); assay: fluorescence polarization (FP) PIP3/Akt PH domain binding assay; settings: 15 nM TMR-PIP3, 5 μM GST-PH domain of Akt, 30 min, read-out: IC50, disruption of PIP3/Akt PH domain binding
T1 construct: recombinant GST fusion proteins containing 1-123 a.a; N-terminal fragment of human Akt1 (PH 123); made in house; host or cells: E. coli BL21(DE3)
T1 sequence (P31749 1-123): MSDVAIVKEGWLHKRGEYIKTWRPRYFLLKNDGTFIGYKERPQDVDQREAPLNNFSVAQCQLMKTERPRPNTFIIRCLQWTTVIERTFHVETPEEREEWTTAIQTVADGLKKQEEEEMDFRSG
Method: 15 nM TMR-conjugated PIP3 were incubated with 5 μM GST-PH domain of Akt in the presence or absence of the indicated concentrations of PITs (0-200 μM) for 30 min, followed by FP measurement.
In order to identify compounds that disrupt the interaction between PIP3 and PH domains, a high-throughput fluorescence polarization (FP)-binding assay was developed using recombinant 1-123 amino acid N-terminal fragment of human Akt1 (also referred to herein simply as Akt), encompassing the PH domain (PH123 protein), and fluorescent NBD-labeled PIP3 molecule. […] Briefly, 5 μM recombinant GST fusion proteins containing 1-123 a.a. N-terminal fragment of human Akt1 (PH 123) or 100 nM 441-551 a.a. region of human PDK1 were incubated with 15 nM TMR-labeled PIP3, PIP2, or PIP5 in buffer containing 50 mM Tris-HCl (pH 7.5), 150 mM NaCl, and 5 mM b-ME for 15 min at room temperature in the dark. FP values were determined using Wallac Victor 3 plate reader. […] Incubations were carried out for 1 hr. For secondary assays, PIT compounds were added at various concentrations (6.25, 12.5, 25, 50, 100, 150 and 200 μM), followed by a 30 min incubation. The inhibition rates were calculated as: inhibition rate=[1−(compound-treated group/control group)]×100%, and IC50 value was determined using Origin6 software (MicroCal, LLC, Northampton, Mass.).

cells [4] = assay: subG1 DNA content; assay type: cell-based; settings: P<0.01
Text: Since PI3K/PIP3/Akt signaling plays a critical role in the inhibition of apoptosis (Datta S R et al. (1999) Genes Dev 13:2905-27), the possibility that PITs induce apoptosis was examined. […] Proapoptotic Bcl-2 family members Bax and Bak are important mediators of apoptosis. Wei M C et al. (2001) Science 292:727-30. […] Non-apoptotic mechanisms of cell death may also play some additional, albeit less important, role in PIT-induced killing, as some cell death was still observed in Bax/Bak-deficient cells and in the presence of zVAD.fmk.

Row | SMILES | cell death in combination with glucose/glutamine deprivation (cells [1]) | migration of HUVEC cells (HUVEC) | viability of multiple cancer cell lines [2] | PDGF-induced membrane ruffling in SUM159 cells (SUM159 cells) | IC50 [3] | subG1 DNA content in cells (cells [4]) | viability of U87MG, SUM 159, A549 and MDA-MB-231 cells ([2]; 12.5-100 μM, 48 hr, ATP assay)
1 | O=C1NC(=S)S/C1=C\c1cc(O)c([N+](=O)[O-])cc1Cc1ccccc1 [PIT-2] | dramatic induction of cell death | efficiently blocked migration | reduced viability | efficiently inhibited | 31.5 µM | significant increase | –
2 | O=C(NC(=S)Nc1cc([N+](=O)[O-])cc(Cl)c1O)c1ccccc1 [PIT-1] | dramatic induction of cell death | efficiently blocked migration | reduced viability | efficiently inhibited | 28.1 µM | significant increase | reduces viability
